Assay results from the NIST ThermoML archive (doi:10.1016/j.jct.2016.03.030).
Numbers after ± are expanded uncertainties.

How the values were obtained:
[1] = Molar enthalpy of transition or fusion; settings: DSC
[2] = for viscosity: 100 kPa, Liquid, Falling or rolling sphere viscometry
[3] = xn = mol fraction of the nth substance listed; settings: 100 kPa, Liquid, x2 = 0; for viscosity: Falling or rolling sphere viscometry; for mass density: Vibrating tube method

Compound	Molar enthalpy of transition or fusion ([1]; Crystal 1) [kcal/mol]	Normal melting temperature ([2]; Crystal 1, DTA) [°C]	viscosity ([3]; 298.15 K) [mPa·s]	viscosity ([3]; 303.15 K) [mPa·s]	viscosity ([3]; 308.15 K) [mPa·s]	viscosity ([3]; 313.15 K) [mPa·s]	viscosity ([3]; 318.15 K) [mPa·s]	mass density ([3]; 318.15 K) [kg/m3]	viscosity ([3]; 323.15 K) [mPa·s]	mass density ([3]; 323.15 K) [kg/m3]	viscosity ([3]; 328.15 K) [mPa·s]	mass density ([3]; 328.15 K) [kg/m3]	viscosity ([3]; 333.15 K) [mPa·s]	mass density ([3]; 333.15 K) [kg/m3]	viscosity ([3]; 338.15 K) [mPa·s]	mass density ([3]; 338.15 K) [kg/m3]	viscosity ([3]; 343.15 K) [mPa·s]	mass density ([3]; 343.15 K) [kg/m3]	other results
CCCCC[N+]1(C)CCCCC1.[Br-] [1-methyl-1-pentylpiperidinium bromide]	2.11 ± 0.263	173.7 ± 0.41																	
CCCC[N+]1(C)CCOCC1.[Br-] [4-butyl-4-methylmorpholinium bromide]	3.37 ± 0.263	211.32 ± 0.41																	
CCCCC[N+]1(C)CCOCC1.[Br-] [4-methyl-4-pentylmorpholinium bromide]	1.94 ± 0.263	194 ± 0.41																	
CCC[N+]1(C)CCOCC1.[Br-] [4-methyl-4-propylmorpholinium bromide]	2.72 ± 0.263	180.79 ± 0.41																	Molar enthalpy of transition or fusion ([1]; Crystal 2): 0.55 ± 0.239 kcal/mol; Triple point temperature ([2]; Crystal 2, DSC): 341.13 ± 0.77 K
O [water]																			viscosity ([2]; 298.15 K): 0.912 ± 0.091 mPa·s; viscosity ([2]; 303.15 K): 0.819 ± 0.082 mPa·s; viscosity ([2]; 308.15 K): 0.739 ± 0.074 mPa·s; viscosity ([2]; 313.15 K): 0.671 ± 0.067 mPa·s; viscosity ([2]; 318.15 K): 0.611 ± 0.061 mPa·s; viscosity ([2]; 323.15 K): 0.559 ± 0.056 mPa·s; viscosity ([2]; 328.15 K): 0.514 ± 0.052 mPa·s; viscosity ([2]; 333.15 K): 0.474 ± 0.048 mPa·s; viscosity ([2]; 338.15 K): 0.439 ± 0.044 mPa·s; viscosity ([2]; 343.15 K): 0.408 ± 0.041 mPa·s; Normal melting temperature ([2]; Crystal, visual observation): 0.00 ± 0.39 °C
O [water] + CCCCC[N+]1(C)CCCCC1.[Br-]			0.912 ± 0.091	0.819 ± 0.082	0.739 ± 0.074	0.671 ± 0.067	0.611 ± 0.061	990.1 ± 1	0.559 ± 0.056	987.9 ± 1	0.514 ± 0.052	985.6 ± 1	0.474 ± 0.048	983.2 ± 1	0.439 ± 0.044	980.3 ± 1	0.408 ± 0.041	978.1 ± 1	
O [water] + CCCCC[N+]1(C)CCOCC1.[Br-]			0.912 ± 0.091	0.819 ± 0.082	0.739 ± 0.074	0.671 ± 0.067	0.611 ± 0.061	990.1 ± 1	0.559 ± 0.056	987.9 ± 1	0.514 ± 0.052	985.6 ± 1	0.474 ± 0.048	983.2 ± 1	0.439 ± 0.044	980.3 ± 1	0.408 ± 0.041	978.1 ± 1	
O [water] + CCCC[N+]1(C)CCOCC1.[Br-]			0.912 ± 0.091	0.819 ± 0.082	0.739 ± 0.074	0.671 ± 0.067	0.611 ± 0.061	990.1 ± 1	0.559 ± 0.056	987.9 ± 1	0.514 ± 0.052	985.6 ± 1	0.474 ± 0.048	983.2 ± 1	0.439 ± 0.044	980.3 ± 1	0.408 ± 0.041	978.1 ± 1	
O [water] + CCC[N+]1(C)CCOCC1.[Br-]			0.912 ± 0.091	0.819 ± 0.082	0.739 ± 0.074	0.671 ± 0.067	0.611 ± 0.061	990.1 ± 1	0.559 ± 0.056	987.9 ± 1	0.514 ± 0.052	985.6 ± 1	0.474 ± 0.048	983.2 ± 1	0.439 ± 0.044	980.3 ± 1	0.408 ± 0.041	978.1 ± 1	
